From patent US11541107B2, “Peptides and T cells for use in immunotherapeutic treatment of various cancers” (Immatics Biotechnologies GmbH, priority 2015, dated 2023)

The substances below were run on HLA-A*24 (assay: MHC binding assay, UV-ligand exchange with beta2m ELISA, HLA-A*24). Conditions: binding to HLA-A*24 ranged by peptide exchange yield (UV-ligand exchange, beta2m ELISA).
Set-up: species or system human
Excerpt: Candidate peptides for T cell based therapies according to the present invention were further tested for their MHC binding capacity (affinity). The individual peptide-MHC complexes were produced by UV-ligand exchange, where a UV-sensitive peptide is cleaved upon UV-irradiation, and exchanged with the peptide of interest as analyzed. Only peptide candidates that can effectively bind and stabilize the peptide-receptive MHC molecules prevent dissociation of the MHC complexes. To determine the yield of the exchange reaction, an ELISA was performed based on the detection of the light chain (ß2 m) of stabilized MHC complexes. The assay was performed as generally described in Rodenko et al. (Rodenko et al., 2006).
96 well MAXISorp plates (NUNC) were coated over night with 2 ug/ml streptavidin in PBS at room temperature, washed 4× and blocked for 1 h at 37° C. in 2% BSA containing blocking buffer. […] Peptide-MHC monomers of the UV-exchange reaction were diluted 100 fold in blocking buffer. Samples were incubated for 1 h at 37° C., washed four times, incubated with 2 ug/ml HRP conjugated anti-β2 m for 1h at 37° C., washed again and detected with TMB solution that is stopped with […]. Absorption was measured at 450 nm. Candidate peptides that show a high exchange yield (preferably higher than 50%, most preferred higher than 75%) are generally preferred for a generation and production of antibodies or fragments thereof, and/or T cell receptors or fragments thereof, as they show sufficient avidity to the MHC molecules and prevent dissociation of the MHC complexes.

Substance | Peptide exchange
241 (SYVKVLHHL; listed as Homo sapiens) [compound 241] | +++ (50%-75% = +++)
385 (QYIEELQKF; listed as Homo sapiens) [compound 385] | +++ (50%-75% = +++)
273 (IYGEKLQFIF; listed as Homo sapiens) [compound 273] | +++ (50%-75% = +++)
312 (SYTSVLSRL; listed as Homo sapiens) [compound 312] | +++ (50%-75% = +++)
370 (RFIGIPNQF; listed as Homo sapiens) [compound 370] | +++ (50%-75% = +++)
307 (GYAFTLPLF; listed as Homo sapiens) [compound 307] | +++ (50%-75% = +++)
298 (AYKSEVVYF; listed as Homo sapiens) [compound 298] | ++++ (>=75% = ++++)
371 (AYSHLRYVF; listed as Homo sapiens) [compound 371] | ++ (20%-49% = ++)
140 (RYLINSYDF; listed as Homo sapiens) [compound 140] | ++++ (>=75% = ++++)
147 (LYLAFPLAF; listed as Homo sapiens) [compound 147] | +++ (50%-75% = +++)
239 (VYAIFRILL; listed as Homo sapiens) [compound 239] | +++ (50%-75% = +++)
368 (KYQNVKHNL; listed as Homo sapiens) [compound 368] | +++ (50%-75% = +++)
134 (AYIPTPIYF; listed as Homo sapiens) [compound 134] | +++ (50%-75% = +++)
253 (IYGFFNENF; listed as Homo sapiens) [compound 253] | +++ (50%-75% = +++)

The remaining lines, values ahead:

Peptide exchange | Substance
++ (20%-49% = ++) | 250 (KYPDIASPTF; listed as Homo sapiens) [compound 250]
+++ (50%-75% = +++) | 269 (QYPYLQAFF; listed as Homo sapiens) [compound 269]
+++ (50%-75% = +++) | 225 (TYTNTLERL; listed as Homo sapiens) [compound 225]
+++ (50%-75% = +++) | 119 (VYRVYVTTF; listed as Homo sapiens) [compound 119]
+++ (50%-75% = +++) | 108 (PYLVVIHTL; listed as Homo sapiens) [compound 108]
+++ (50%-75% = +++) | 291 (YYLGSGRETF; listed as Homo sapiens) [compound 291]
+++ (50%-75% = +++) | 233 (QYLTAAALHNL; listed as Homo sapiens) [compound 233]
+++ (50%-75% = +++) | 384 (RYFDVGLHNF; listed as Homo sapiens) [compound 384]
+++ (50%-75% = +++) | 295 (SYLVIHERI; listed as Homo sapiens) [compound 295]
++++ (>=75% = ++++) | 274 (KQLDIANYELF; listed as Homo sapiens) [compound 274]
+++ (50%-75% = +++) | 254 (KYLESSATF; listed as Homo sapiens) [compound 254]
+++ (50%-75% = +++) | 102 (VYPFENFEF; listed as Homo sapiens) [compound 102]
+++ (50%-75% = +++) | 360 (VFSPDGHLF; listed as Homo sapiens) [compound 360]
++++ (>=75% = ++++) | 184 (IYSVGAFENF; listed as Homo sapiens) [compound 184]
+++ (50%-75% = +++) | 204 (EYLSTCSKL; listed as Homo sapiens) [compound 204]
++++ (>=75% = ++++) | 149 (SYGTVSQI; listed as Homo sapiens) [compound 149]
+++ (50%-75% = +++) | 216 (FYVNVKEQF; listed as Homo sapiens) [compound 216]
+++ (50%-75% = +++) | 192 (RYSTFSEIF; listed as Homo sapiens) [compound 192]
